For eleven molecules, TGI results are on record in PubChem BioAssay (NCI).

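1) Cells in 96-well plates. 2) Compound, 48 h, 5 concentrations. 3) Linear interpolation between surrounding doses. 4) Unreached endpoint = highest concentration. TGI: total growth inhibition.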

Among the test systems are A498 renal; A549 NSCLC; ACHN renal; HCT-116 colon; MDA-MB-231 breast; MDA-N; NCI-H226 lung; PC-3 prostate; RPMI-8226 leukemia; SK-OV-3 ovarian; SW-620 colon; U251 CNS.
Holding throughout (test): NCI-60 cell line screen, 48 h

Regarding `NC(=O)c1nnc2cc(F)ccc2c1N`, the TGI in the assay with A498 renal, with A549 NSCLC, in the assay with ACHN renal, with HCT-116 colon, in the assay on MDA-MB-231 breast and with MDA-N was above 100 µM in each case. The TGI in the assay on NCI-H226 lung, with PC-3 prostate, in the assay with RPMI-8226 leukemia, in the assay on SK-OV-3 ovarian, with SW-620 colon and with U251 CNS was above 100 µM each time.
Regarding `O=[N+]([O-])/C(C(Cl)=C(Cl)Cl)=C1\NCCO1`, the TGI with A498 renal, in the assay on A549 NSCLC, with ACHN renal, in the assay on HCT-116 colon, in the assay with MDA-MB-231 breast and in the assay with MDA-N was above 100 µM throughout. The TGI with NCI-H226 lung, with PC-3 prostate, in the assay on RPMI-8226 leukemia, in the assay with SK-OV-3 ovarian and in the assay on U251 CNS was above 100 µM in each case.
Turning to `CNc1ccc(-c2nc3cc(C)ccc3o2)cc1`, the TGI with A498 renal was 77.8 µM; with A549 NSCLC, above 100 µM; in the assay on ACHN renal, above 100 µM; with HCT-116 colon, above 100 µM; in the assay with MDA-MB-231 breast it was above 100 µM; in the assay on MDA-N, above 100 µM. Besides, the TGI in the assay with NCI-H226 lung was above 100 µM; with PC-3 prostate, above 100 µM; in the assay with RPMI-8226 leukemia, above 100 µM; in the assay with SK-OV-3 ovarian, 61 µM; with SW-620 colon, above 100 µM; in the assay on U251 CNS it was above 100 µM.
For the molecule `CC1(C)N=C(C(N)=O)c2ncn(CCO)c2N1`, the TGI in the assay with A498 renal, in the assay on A549 NSCLC, with ACHN renal, in the assay on HCT-116 colon, with MDA-MB-231 breast and in the assay on MDA-N was above 100 µM throughout. The TGI in the assay on NCI-H226 lung, with PC-3 prostate, with RPMI-8226 leukemia, in the assay with SK-OV-3 ovarian, in the assay on SW-620 colon and in the assay with U251 CNS was above 100 µM throughout.
Turning to `COc1ccc(S(=O)(=O)O)cc1-n1nc(C(=O)Nc2ccccc2)n[n+]1-c1cc(S(=O)(=O)[O-])ccc1OC`, the TGI in the assay with A498 renal, with A549 NSCLC, with ACHN renal, in the assay on HCT-116 colon, in the assay with MDA-MB-231 breast and in the assay with MDA-N was above 100 µM each time. Further, the TGI in the assay on NCI-H226 lung, with PC-3 prostate, in the assay on RPMI-8226 leukemia, with SK-OV-3 ovarian, in the assay with SW-620 colon and in the assay with U251 CNS was above 100 µM in each case.
For the molecule `Clc1nc(Cl)c(Cl)c(Cl)n1`, the TGI was found to be 34.6 µM in the assay on A498 renal; 40.5 µM in the assay with A549 NSCLC; 26 µM in the assay with ACHN renal; 38.2 µM with HCT-116 colon; 41.3 µM with MDA-MB-231 breast; 37.9 µM with MDA-N. Moreover, the TGI in the assay with NCI-H226 lung is 42.8 µM; in the assay on PC-3 prostate, 34.4 µM; with RPMI-8226 leukemia, above 100 µM; in the assay with SK-OV-3 ovarian, 30.3 µM; with SW-620 colon, 20.1 µM; in the assay with U251 CNS, 36.1 µM.
Regarding `O=C1C(F)=CC(COC(c2ccccc2)(c2ccccc2)c2ccccc2)OC1n1cc(F)c(=O)[nH]c1=O` (stereo unspecified), the TGI was 24.4 µM in the assay on A498 renal; 6.12 µM in the assay on A549 NSCLC; 3.08 µM with ACHN renal; 10.9 µM in the assay on HCT-116 colon; 18.5 µM with MDA-MB-231 breast; 3.38 µM in the assay with MDA-N. Besides, the TGI in the assay with NCI-H226 lung is 5.51 µM; in the assay with PC-3 prostate, 4.69 µM; in the assay with RPMI-8226 leukemia it was 1.31 µM; in the assay with SK-OV-3 ovarian, 14.4 µM; in the assay on SW-620 colon, 4.26 µM; in the assay with U251 CNS it was 4.71 µM.
As to `COC1=C(N=[N+]=[N-])C(=O)c2ncccc2C1=O`, the TGI turned out to be 30.9 µM in the assay on A498 renal; 32.1 µM in the assay with A549 NSCLC; 15 µM in the assay on ACHN renal; 6.57 µM in the assay with HCT-116 colon; 25 µM in the assay with MDA-MB-231 breast; 3.69 µM with MDA-N. In addition, the TGI in the assay with NCI-H226 lung was determined as 35.9 µM; with PC-3 prostate, 29 µM; in the assay on RPMI-8226 leukemia, 4.89 µM; in the assay on SK-OV-3 ovarian, 28.5 µM; in the assay on SW-620 colon, 4.24 µM; in the assay with U251 CNS, 27.7 µM.
`CCCCc1c(C(=O)OC(C)(C)C)cc(C#Cc2cc(C(=O)OC(C)(C)C)c(CCCC)c(C(=O)OC(C)(C)C)c2)cc1C(=O)OC(C)(C)C`: the TGI with A498 renal, in the assay on A549 NSCLC, in the assay with ACHN renal, in the assay with HCT-116 colon, in the assay on MDA-MB-231 breast and in the assay with MDA-N was above 100 µM throughout. The TGI in the assay with NCI-H226 lung, in the assay with PC-3 prostate, in the assay on RPMI-8226 leukemia, in the assay with SK-OV-3 ovarian and in the assay on U251 CNS was above 100 µM in each case.
For `O=c1[nH]nc(-c2ccccc2)n1/N=C/c1ccncc1`, the TGI with A498 renal was 71.6 µM; in the assay on A549 NSCLC, above 100 µM; in the assay on ACHN renal it was above 100 µM; in the assay on HCT-116 colon, above 100 µM; with MDA-N, above 100 µM; in the assay with NCI-H226 lung, above 100 µM. In addition, the TGI in the assay with PC-3 prostate, in the assay with RPMI-8226 leukemia, with SW-620 colon and in the assay on U251 CNS was above 100 µM throughout.
For the molecule `O=C1CC(=O)c2c(O)cc(O)c(c2O)-c2c(ccc(O)c2O)C2=CC(=O)c3c(O)cc(O)c(c3O2)-c2c1ccc(O)c2O` (tested in a mixture with another compound), the TGI with A498 renal, in the assay on A549 NSCLC, in the assay with HCT-116 colon, with MDA-MB-231 breast, in the assay on MDA-N and with NCI-H226 lung was above 50 µM throughout. The TGI with PC-3 prostate, in the assay with SK-OV-3 ovarian, in the assay on SW-620 colon and in the assay with U251 CNS was above 50 µM each time.
